Consider 23 compounds from patent US12145927B2 (BRISTOL-MYERS SQUIBB COMPANY, priority 2018, dated 2024).

Molecules are shown by their SMILES. pIC50: −log10 of the molar value.

What is called pIC50 is the IC50 on a negative log10 scale, so that one unit is a factor of ten. The low end stands for a large IC50, the high end for a small IC50.

The target in this assay is T1, human IDO1 (Homo sapiens, UniProt P14902).
T1 construct: expressed in transfected cells
T1 sequence (P14902 whole entry): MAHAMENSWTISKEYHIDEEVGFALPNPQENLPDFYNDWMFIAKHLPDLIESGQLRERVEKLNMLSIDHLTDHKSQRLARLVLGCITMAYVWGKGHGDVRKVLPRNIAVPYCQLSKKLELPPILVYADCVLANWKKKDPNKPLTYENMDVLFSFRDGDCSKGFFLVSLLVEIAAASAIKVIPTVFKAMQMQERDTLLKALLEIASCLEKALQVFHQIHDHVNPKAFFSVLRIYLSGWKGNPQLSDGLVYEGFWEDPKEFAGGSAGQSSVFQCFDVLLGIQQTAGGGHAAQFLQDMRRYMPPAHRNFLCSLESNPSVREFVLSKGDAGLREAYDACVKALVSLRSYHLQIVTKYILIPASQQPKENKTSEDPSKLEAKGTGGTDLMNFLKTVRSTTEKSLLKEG
The assay can be described thus: IDO inhibition assay in human IDO1/HEK293 cells (IDO1 HEK Human). The settings on record: HEK293 cells stably expressing human IDO1; 20 hours incubation; absorbance at 490 nm after Ehrlich reagent. The assay is classed as cell-based. In outline:
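Kynurenine output of stably IDO1-transfected HEK293 cells was measured by absorbance at 490 nm after mixing supernatant with 0.2% Ehrlich reagent, following TCA stop (0.2% final, 50° C., 30 min). Cells were incubated 20 hours with compound. Inhibition was scaled between DMSO and 500 nM reference standard.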
Regarding `O=C(Cc1ccccc1F)Nc1cc(-c2ccccc2-c2nnn[nH]2)cc2c1OCCCC2C1CC1` (single isomer, unassigned) [40 (En. 1), N-(7-(2-(1H-tetrazol-5-yl)phenyl)-5-cyclopropyl-2,3,4,5-tetrahydrobenzo[b]oxepin-9-yl)-2-(2-fluorophenyl)acetamide], the pIC50 was 6.66. Regarding `Cc1ccc(Nc2cc(-c3ccccc3-c3nnn[nH]3)cc3c2OCCCC3c2ccccc2)nc1` (single isomer, unassigned) [62 (En. 1), N-(7-(2-(1H-tetrazol-5-yl)phenyl)-5-phenyl-2,3,4,5-tetrahydrobenzo[b]oxepin-9-yl)-5-methylpyridin-2-amine], the pIC50 is 5.74. The figure for `Cc1ccc(NC(=O)Nc2cc(-c3cc(F)ccc3C(=O)O)cc3c2O[C@@H](C)[C@@H]3CCC(F)(F)F)cc1` (relative stereo) [Example 119, rel-4-fluoro-2-((2R,3S)-2-methyl-7-(3-(p-tolyl)ureido)-3-(3,3,3-trifluoropropyl)-2,3-dihydrobenzofuran-5-yl)benzoic acid] is 6.11; for `O=C(Nc1ccccc1F)Nc1cc(-c2ccccc2-c2nnn[nH]2)cc2c1OCCCC2C1CC1` (single isomer, unassigned) [38 (En. 1), 1-(7-(2-(1H-tetrazol-5-yl)phenyl)-5-cyclopropyl-2,3,4,5-tetrahydrobenzo[b]oxepin-9-yl)-3-(2-fluorophenyl)urea] it is 6.65; for `Cc1ccc(CC(=O)Nc2cc(-c3ccccc3-c3nnn[nH]3)cc3c2OCCCC3C(C)C)cc1` (single isomer, unassigned) [25 (En. 2), N-(7-(2-(1H-tetrazol-5-yl)phenyl)-5-isopropyl-2,3,4,5-tetrahydrobenzo[b]oxepin-9-yl)-2-(p-tolyl)acetamide] it is 7.15. In the case of `Cc1ccc(-c2nnn[nH]2)c(-c2cc(Nc3ccc(OC(F)F)cc3)c3c(c2)C(c2ccccc2)CCCO3)c1` (single isomer, unassigned) [Example 79, N-(4-(difluoromethoxy)phenyl)-7-(5-methyl-2-(1H-tetrazol-5-yl)phenyl)-5-phenyl-2,3,4,5-tetrahydrobenzo[b]oxepin-9-amine] it was 7.47.

`Cc1ccc(NC(=O)Nc2cc(-c3ccccc3-c3nnn[nH]3)cc3c2OCC(O)C(O)C3c2ccccc2)cc1` (racemic) [9 (Rac.), 1-(7-(2-(1H-tetrazol-5-yl)phenyl)-3,4-dihydroxy-5-phenyl-2,3,4,5-tetrahydrobenzo[b]oxepin-9-yl)-3-(p-tolyl)urea] gave a pIC50 of 5.99. The figure for `Cc1ccc(CC(=O)Nc2cc(-c3ccccc3-c3nnn[nH]3)cc3c2OCCCC3c2ccccc2)cc1` (racemic) [Example 2-1, N-(7-(2-(1H-tetrazol-5-yl)phenyl)-5-phenyl-2,3,4,5-tetrahydrobenzo[b]oxepin-9-yl)-2-(p-tolyl)acetamide] is 7.01; for `c1ccc(C2CCCOc3c(Nc4nc5ccccc5s4)cc(-c4ccccc4-c4nnn[nH]4)cc32)cc1` (single isomer, unassigned) [64 (En. 1), N-(7-(2-(1H-tetrazol-5-yl)phenyl)-5-phenyl-2,3,4,5-tetrahydrobenzo[b]oxepin-9-yl) benzo[d]thiazol-2-amine] it is 6.38; for `C=C[C@@H]1Oc2c(NC(=O)Nc3ccc(C)cc3)cc(-c3ccccc3-c3nn[nH]n3)cc2[C@@H]1c1ccccc1` (racemic) [Example 86, (+/−)-1-((cis)-5-(2-(1H-tetrazol-5-yl)phenyl)-3-phenyl-2-vinyl-2,3-dihydrobenzofuran-7-yl)-3-(p-tolyl)urea] it is 7.92. In the case of `O=C(Nc1ccc(Cl)cc1F)Nc1cc(-c2ccccc2-c2nnn[nH]2)cc2c1OCCCC2C1CC1` (single isomer, unassigned) [41 (En. 2), 1-(7-(2-(1H-tetrazol-5-yl)phenyl)-5-cyclopropyl-2,3,4,5-tetrahydrobenzo[b]oxepin-9-yl)-3-(4-chloro-2-fluorophenyl)urea] it was 7.03; in that of `Cc1ccc(NC(=O)Nc2cc(-c3cc(C)ccc3C(=O)O)cc3c2OCCCC3c2ccccc2)cc1` (single isomer, unassigned) [Example 68, 4-methyl-2-(5-phenyl-9-(3-(p-tolyl)ureido)-2,3,4,5-tetrahydrobenzo[b]oxepin-7-yl)benzoic acid], 7.84; in that of `COC(=O)c1c(C)cccc1-c1cc(NC(=O)Nc2ccc(C)cc2)c2c(c1)C(c1ccccc1)CCCO2` (centres unmarked) [Example 66, methyl 2-methyl-6-(5-phenyl-9-(3-(p-tolyl)ureido)-2,3,4,5-tetrahydrobenzo[b]oxepin-7-yl)benzoate], 6.49. The figure for `Fc1ccc2oc(Nc3cc(-c4ccccc4-c4nnn[nH]4)cc4c3OCCCC4C3CC3)nc2c1` (centres unmarked) [Example 27, N-(7-(2-(1H-tetrazol-5-yl)phenyl)-5-cyclopropyl-2,3,4,5-tetrahydrobenzo[b]oxepin-9-yl)-5-fluorobenzo[d]oxazol-2-amine] is 7.58; for `C=C[C@H]1Oc2c(NC(=O)Nc3ccc(C)cc3)cc(-c3ccccc3-c3nnn[nH]3)cc2[C@@H]1CCC(F)(F)F` (racemic) [Example 94, (+/−)-1-((trans)-5-(2-(1H-tetrazol-5-yl)phenyl)-3-(3,3,3-trifluoropropyl)-2-vinyl-2,3-dihydrobenzofuran-7-yl)-3-(p-tolyl)urea] it is 7.72; for `c1ccc(C2CCCOc3c(Nc4nc5ccccc5o4)cc(-c4ccccc4-c4nnn[nH]4)cc32)cc1` (racemic) [Example 53, N-(7-(2-(1H-tetrazol-5-yl)phenyl)-5-phenyl-2,3,4,5-tetrahydrobenzo[b]oxepin-9-yl) benzo[d] oxazol-2-amine] it is 8.38. Take `Cc1cnc(Nc2cc(-c3ccccc3-c3nnn[nH]3)cc3c2OCCCC3c2ccccc2)nc1` (single isomer, unassigned) [55 (En. 2), N-(7-(2-(1H-tetrazol-5-yl)phenyl)-5-phenyl-2,3,4,5-tetrahydrobenzo[b]oxepin-9-yl)-5-methylpyrimidin-2-amine]: the negative logarithm of the IC50 (pIC50) is 7.11. Compared with the last compound, the pIC50 is 1.27 log units lower. The figure for `Cc1ccc(CC(=O)Nc2cc(-c3ccccc3-c3nnn[nH]3)cc3c2OCCCC3c2ccccc2)cc1` (single isomer, unassigned) [Example 2-2, N-(7-(2-(1H-tetrazol-5-yl)phenyl)-5-phenyl-2,3,4,5-tetrahydrobenzo[b]oxepin-9-yl)-2-(p-tolyl)acetamide] is 7.50; for `C=C[C@H]1Oc2c(NC(=O)Nc3ccc(C)cc3)cc(-c3ccccc3-c3nnn[nH]3)cc2[C@@H]1c1ccccc1` (racemic) [Example 85, (+/−)-1-((trans)-5-(2-(1H-tetrazol-5-yl)phenyl)-3-phenyl-2-vinyl-2,3-dihydrobenzofuran-7-yl)-3-(p-tolyl)urea] it is 7.49. The figure for `Cc1ccc(NC(=O)Nc2cc(-c3ccccc3-c3nnn[nH]3)cc3c2OC(C)(C)C3c2ccccc2)cc1` (racemic) [Example 123, (±)-1-(5-(2-(1H-Tetrazol-5-yl)phenyl)-2,2-dimethyl-3-phenyl-2,3-dihydrobenzofuran-7-yl)-3-(p-tolyl)urea] is 8.20; for `Fc1cnc(Nc2cc(-c3ccccc3-c3nnn[nH]3)cc3c2OCCCC3c2ccccc2)nc1` (single isomer, unassigned) [63 (En-2), N-(7-(2-(1H-tetrazol-5-yl)phenyl)-5-phenyl-2,3,4,5-tetrahydrobenzo[b]oxepin-9-yl)-5-fluoropyrimidin-2-amine] it is 7.94. In the case of `Cc1ccc(NC(=O)Nc2cc(-c3ccccc3-c3nnn[nH]3)cc3c2OCC(O)C(O)C3c2ccccc2)cc1` (single isomer, unassigned) [9 (En. 1), 1-(7-(2-(1H-tetrazol-5-yl)phenyl)-3,4-dihydroxy-5-phenyl-2,3,4,5-tetrahydrobenzo[b]oxepin-9-yl)-3-(p-tolyl)urea] it was less than 5.22; in that of `Cc1ccc(NC(=O)Nc2cc(-c3ccccc3-c3nnn[nH]3)cc3c2O[C@@H](C)[C@H]3c2ccccc2)cc1` (relative stereo) [Example 113, rel-1-((2R,3R)-5-(2-(2H-tetrazol-5-yl)phenyl)-2-methyl-3-phenyl-2,3-dihydrobenzofuran-7-yl)-3-(p-tolyl)urea], 7.11.
